In ChEMBL document CHEMBL5729371, “Compound functioning as bromodomain protein inhibitor, and composition” (2022) one finds IC50 data, which are given here for 3 molecules.

Test [1] concerns the target T1, Bromodomain-containing protein 4 (Homo sapiens, UniProt O60885). In words: (§1) Inhibitory Activity Assay: The assays of BRD4 (D1) and BRD4 (D2) were conducted in a 384-well polystyrene plate. The test compounds were first serially diluted in DMSO and the test compound/DMSO were transferred to 384-well plates. The final concentration of DMSO in the assay was 0.1%. 2 volumes of protein/peptide mixture were added into 384-well plates, then 2 volumes of assay mixture were added, and shake for 30 s. The plate was incubated at room temperature for 2 h. Then the HTRF signal on EnVision was readed. A general note: TR-FRET usually uses a lanthanide donor and a delayed reading to cut background.

Test [2] concerns the target T1, Bromodomain-containing protein 4. Described as §1. This is another data set of the same source.

Consider `Cc1nc2ncc(-c3cn(C)c(=O)c4[nH]ccc34)nc2n1Cc1ccc(Cl)cc1`, for which the IC50 (commonly the concentration that inhibits the measured activity by half) in test [1] came out at 1.7 nM; in test [2], 6.9 nM.

With `CCS(=O)(=O)Nc1cc(-c2cn(C)c(=O)c3[nH]ccc23)cc2c1nc(C)n2Cc1ccc(Cl)cc1`, the values for the 50% inhibitory concentration (IC50) in test [1] and in test [2] were 0.4 nM and 1 nM, respectively.

On to `Cc1nc2ncc(-c3cn(C)c(=O)c4[nH]ccc34)cc2n1Cc1cccc(Cl)c1`, for which the 50% inhibitory concentration (IC50) was 1.4 nM in test [1] and 4.2 nM in test [2].
